The source of these data is patent US11759480B2, “Compositions and methods for CAR T cell therapy” (ENDOCYTE, INC., priority 2017, dated 2023).

For series [1], the system named is MDA-MB-231 tumors. As to conditions: mouse, in vivo.
Protocol: To evaluate whether mice with FITC-CAR-T therapy related sCRS can be rescued by using competitors which may displace EC17 from either FITC-CAR-T or FR+ tumor cells, 49 NSG mice bearing MDA-MB-231 tumors (150-250 mm3) were administered with excess FITC-CAR-T cells (8 million), 36 of them were then dosed with 500 nmol/kg EC17 48 hours post CAR-T administration, 6 of them were not dosed with EC17 and were used as “No EC17” control, and 7 of them were dosed with 260 umol/kg sodium fluorescein (no EC17 but Fluorescein) to test its toxicity. […] Each group was i.v. injected with 10 umol/kg of Leucovorin, or 10 umol/kg folic acid, or 260 umol/kg sodium fluorescein, or nothing as an un-rescued control. […] Mouse body weight changes were also monitored as the indication of toxicity. […] To evaluate whether the rescue injections affect the anti-tumor activity of FITC-CAR-T cells, these mice were dosed with 500 nmol/kg EC17 twice per week (days 9, 11, 15, 18, 22, 25, etc.) and the tumor size was monitored.
Series [2] relates to anti-FITC CAR T cells with MDA-MB-231. The series is described as follows: In vitro interferon-γ assay (Example 22). The class given is cell-based, Human. As to the method:
In order to study the relationship between bridge dose and anti-FITC CAR T cell activation, a folate receptor positive cancer cell line (MDA-MB-231) was seeded at a density of 10^4 cells/100 ul of media in each well of a 96-well plate and the cells were grown overnight. Anti-FITC CAR T cells (5×10^4 cells) were then added into each well containing cancer cells with various concentrations of Folate-FITC (from 0.001 nM to 100 μM) for 6-24 hours. After co-incubation, the plates containing anti-FITC CAR T cells and cancer cells were centrifuged for 10 min at 350×g to remove cells and cellular debris, and 50 ul of supernatant was assayed by ELISA (Human IFN-γ ELISA kit from Biolegend) to detect IFN-γ production by anti-FITC CAR T cells.

In series [3] the test system is MDA-MB-231. In words: EC17 dependent anti-tumor activity, MDA-MB-231 xenograft (Example 26). It is filed as in vivo, NSG mice. Conditions: 500 nmoles/kg once per week, 5 million CAR-T. From the text: Immunodeficient NSG mice (Jackson Laboratory) were used to show the efficacy of CAR T cell anti-tumor activity with a single dose of EC17 per week. Two folate receptor expressing cancer cell lines were used to establish subcutaneous solid tumor xenografts: MDA-MB-231 has high folate receptor expression, while OV90 has low folate receptor expression. When tumor volume of around 100-250 mm^3 was reached, mice were divided into two groups. Mice in the “EC17 500 nmol/kg” group (nmol/kg is equivalent to nmoles/kg as used in this patent application for the bridge) were injected with 500 nmoles/kg of body weight of EC17, while mice in the “no EC17” group were not injected with EC17. Four hours later, mice in both groups were administered 5 million anti-FITC CAR-T cells. After initial administration of EC17 and CAR-T cells, only mice in the “EC17 500 nmol/kg” group were injected (i.v.) with 500 nmoles/kg of EC17 once per week. Anti-tumor efficacy was monitored by tumor volume.

Series [4] has as its system MDA-MB-231 cells. The series is described as follows: Bridge dose versus lysis and IFNγ release in MDA-MB-231 cell cultures (Example 43). Conditions: 0.001 to 100,000 nM, Effector:Tumor 5:1. The class given is cell-based, human. As to the method:
FR positive cancer cell lines (e.g. KB or MDA-MB-231 cells) were seeded at density of 10^4 cells/100 μl media into 96 well plates and grown overnight. Anti-fluorescein CAR T cells were added to each well in the absence or presence of bridge molecules. After co-incubation for 6-24 hours, plates were centrifuged at 350×g for 10 min to remove debris and supernatants were analyzed for lactate dehydrogenase release (cell death analysis) using Pierce™ LDH cytotoxicity assay kit (Thermo Fisher Scientific, MA) and interferon γ (IFNγ) levels using human IFNγ ELISA kit (Biolegend, CA), while pellets were either evaluated for CAR T cell activation by staining with anti-human CD69 APC (Clone: FN50, Biolegend, CA) or examined for CAR T cell proliferation by culturing for 5 days in TexMACS™ medium (Miltenyi Biotech Inc, CA) containing 1% penicillin and streptomycin sulfate and quantitating by flow cytometry using the intrinsic GFP fluorescence and staining with anti-human CD3 APC antibody (Clone:HIT3a, Biolegend, CA).
Although a highly elevated and prolonged CRS can often lead to patient death, some level of CRS has been viewed as desirable, since patients displaying no evidence of CRS are not commonly observed to respond to CAR T cell therapies. […]

Series [5] relates to MDA-MB-231 cells. The series is described as follows: Control of CRS with bridge molecules in vivo (Example 43). Set-up: species or system NSG mice. As for the experimental part:
Mice were maintained on folic acid-deficient diet (TD.95247, Envigo) in order to reduce the level of folic acid in mice to a physiological levels found in humans. Tumors were measured every other day with calipers, and tumor volume was calculated according to equation: Tumor volume=½(L×W^2) where L is the longest axis of the tumor and W is the axis perpendicular to L. Mouse blood was also collected to measure cytokine levels (e.g. IL-2, IL-6, IFNγ, and TNFα) using LEGENDplex bead-based immunoassay (Biolegend, CA) and systemic toxicity was monitored by measuring body weight loss. All animal care and use followed by National Institutes of Health (NIH) guidelines and all experimental protocols were approved by the Purdue Animal Care and Use Committee.

Take `O=C([O-])c1ccccc1-c1c2ccc(=O)cc-2oc2cc([O-])ccc12.[Na+].[Na+]` [sodium fluorescein]: the “condition of mice (toxicity test)” value in series [1] is “healthy”.
`Nc1nc2ncc(CNc3ccc(C(=O)NC(CCC(=O)NCCNC(=S)Nc4ccc(-c5c6ccc(=O)cc-6oc6cc(O)ccc56)c(C(=O)O)c4)C(=O)O)cc3)nc2c(=O)[nH]1` (centres unmarked) [EC17, FITC-Folate]: in series [2] (0.001 nM to 100 μM, 6-24 hours), the “optimal bridge dose (highest IFN-γ level)” value amounted to 10 nM. Moreover, in series [2] (10 μM and 100 μM), the IFN-γ production result is “not detected”. Also, the anti-tumor activity result in series [3] was “eliminate MDA-MB-231 tumors”. Besides, the “bridge dose with little effect on tumor cell lysis” value in series [4] is recorded as “below 0.01 nM”. Also, the tumor outcome was “complete tumor eradication” in series [5] (500 nmole/kg, days 4 and 6 omitted); “rapid increase in tumor growth” in series [5] (continuously treated); “complete cures” in series [5] (gradual dose escalation regimen); “complete remission of their tumors” in series [5] (interrupted dosing); “complete cures” in series [5] (one dose per week). Moreover, the “mice requiring euthanasia by day 8” value in series [5] (15×10^6 CAR T cells, continuous alternate day 500 nmole/kg) was “three of the mice”. Besides, the body weight result in series [5] (continuous dosing of 500 nmole/kg, 15×10^6 CAR T cells) is “dramatic and continuous weight loss”; in series [5] (interrupted dosing (days 4 and 6 omitted)), “only a moderate weight loss from which they rapidly recovered”; in series [5] (single injection per week), “no weight loss”; in series [5] (three doses per week, 5×10^6 CAR T cells), “significant animal weight loss”; in series [5] (tumor-free mice) it was “no weight loss was detected”. In series [5] (continuous dosing schedule), the therapeutic benefit entry is “little therapeutic benefit”. Moreover, the “time to resolution of transient weight loss” value in series [5] (escalation 0.5 to 500 nmole/kg, 15×10^6 CAR T cells) is no more than 4 days. Further, the body weight loss in series [5] (tumor-bearing mice, within 4 days, 5×10^6 CAR T cells + 500 nmoles/kg) is given as roughly 8%. The toxicity result in series [5] (two doses per week) is recorded as “less toxicity”.
